Experimental data reported in patent US9028856B2, “Synergistic pesticide compositions” (priority 2008, dated 2015).

Tests used:
[1] = test system: Blattella germanica (males, susceptible); assay: Efficacy of EC formulations on glazed/unglazed tiles, continuous exposure; type: in vivo; conditions: EC formulation
Experimental: (§1) All surfaces were provided with talcum-coated glass rings (diameter 9.5 cm, height 5.5 cm) one day later.
(§2) The test insects were anesthetized with CO2, 20 individuals were placed onto the treated surfaces and the glass ring was covered with wire gauze ring. […]
Each test consisted of at least one replicate and any additional replicates are noted. […]
Test Insects: Culex quinquefasciatus (adults, susceptible) (3 minutes exposure time according to USDA Petri Dish Method), Musca domestica (adults, susceptible and resistant), Blattella germanica (males, susceptible) (both: continuous exposure time)
Formulations: Insecticide with or without 10% Compound A (as EC), to be diluted with water (1 part formulation+9 parts water)
Application: 1 ml of the diluted formulations was applied by pipette onto glazed tiles (15×15 cm)
Evaluation: Knock down after 3, 9 (mosquitoes only), 15, and 30 minutes, 1, 2, 3, 4 and 24 hours (mortality)

[2] = test system: Musca domestica, resistant strain Reichswald; assay: Efficacy of formulations on surfaces (glazed/unglazed tiles), house flies, continuous exposure; type: in vivo; conditions: for % KD and Mortality 15′ / % KD and Mortality 30′ / % KD and Mortality 1 h / % KD and Mortality 2 h / % KD and Mortality 3 h / % KD and Mortality 4 h / % KD and Mortality 6 h / % KD and Mortality 24 h: Table 115, EC formulation, continuous exposure
Experimental: as §1, §2
Each test consisted of at least one replicate and any additional replicates are noted.
Test Insects: House flies (Musca domestica) of both sexes, susceptible strain WHO(N) and resistant strain Reichswald
Evaluation: Mortality was evaluated cumulatively at different times. […]
Test Insects: Culex quinquefasciatus (adults) (3 minutes exposure time according to USDA Petri Dish Method), Musca domestica (adults), susceptible and resistant strain, Blattella germanica (males), Cimex lectularius (adults) (all: continuous exposure time)
Application: The EC formulation (diluted with water 1:9) were applied as 0.85 ml solutions onto glazed tiles (15 cm×15 cm)

[3] = type: physicochemical; conditions: classified from Log P
[4] = test system: tropical house mosquito Culex quinquefasciatus (adults, 3 days old); assay: Efficacy of formulations on surfaces (glazed/unglazed tiles, plywood), ten 3 day old mosquitoes, 3 min exposure; type: in vivo; conditions: EC formulation, 3 minutes exposure
Outline: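 Test agents in acetone, 1 ml pipetted onto 15×15 cm glazed tiles (plywood/unglazed tiles also used; 1 cm edge untreated). USDA Petri Dish Method: ten 3-day-old adults held 3 min under a perforated dish, then given a water-soaked cotton pad. Knock-down scored 3 min–4 h, mortality at 24 h; mean of three batches.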

spiders = assay: Spider control field trial on structures (spider counts in treated and untreated plots); type: in vivo; conditions: imidacloprid ca. 22 mg AI per sq. m; deltamethrin ca. 12 mg AI per sq. m
Source text: Replicated plots (e.g., 1 meter sq. or as site dictates) were defined for treatment and observations. All living spiders in this area were counted, and the trial was begun by sweeping down all webbing, being careful not to harm the resident spiders in the process. The combinations were applied in the very sites formerly occupied by the spiders. The sites were re-visited intermittently, and total number of spiders in treated and untreated plots were counted. The evaluations were continued until the control failed, or as long as was practical. All formulations were diluted in water before treatment. All imidacloprid treatments were applied to the plots at the same rate of ca. 22 mg AI per sq. m. of surface area; deltamethrin was applied at the label rate of ca. 12 mg AI per sq. m. of surface area and served as a positive control. All treatments were replicated in three plots.

[5] = 0.02% = 10 mg Ethiprole/m^2 on glazed tiles
[6] = 0.1% = 50 mg Bendiocarb/m^2 on glazed tiles
[7] = 0.1% = 50 mg imidacloprid/m^2 on glazed tiles

In the case of `CC[S+]([O-])c1c(C#N)nn(-c2c(Cl)cc(C(F)(F)F)cc2Cl)c1N` (stereo not shown) [ethiprole], the “% KD and Mortality 15′” value [1, 5] is reported as 0%, the “% KD and Mortality 30′” value [1, 5] is reported as 0% and the “% KD and Mortality 1 h” value [1, 5] is reported as 0%. The “% KD and Mortality 2 h” value [1, 5] was 80%, the “% KD and Mortality 3 h” value [1, 5] was 100% and the “% KD and Mortality 4 h” value [1, 5] was 100%. The “% KD and Mortality 6 h” value [1, 5] was 100%, the “% KD and Mortality 24 h” value [1, 5] was 100% and the “% KD and Mortality 15′” value [2, 5] was 0%. The “% KD and Mortality 30′” value [2, 5] was 0%, the “% KD and Mortality 1 h” value [2, 5] was 0% and the “% KD and Mortality 2 h” value [2, 5] was 0%. For the same molecule, the “% KD and Mortality 3 h” value [2, 5] was 0%, the “% KD and Mortality 4 h” value [2, 5] was 10% and the “% KD and Mortality 6 h” value [2, 5] was 15%. For the same molecule, the “% KD and Mortality 24 h” value [2, 5] was 60%, the “Likelihood of Direct Insect Cuticular Penetration” value (from here on “Likelihood”) [3] was “Fast (classified as “FAST” when it has a Log P value of about >4.0)” and the “% KD and Mortality 15′” value [4, 5] was 0%. For the same molecule, the “% KD and Mortality 30′” value [4, 5] was 0%, the “% KD and Mortality 1 h” value [4, 5] was 0% and the “% KD and Mortality 2 h” value [4, 5] was 10%. The “% KD and Mortality 3 h” value [4, 5] was 10%, the “% KD and Mortality 4 h” value [4, 5] was 10% and the “% KD and Mortality 6 h” value [4, 5] was 10%. The “% KD and Mortality 24 h” value [4, 5] was 60%.

With `CC1(C)[C@H](C(=O)O[C@H](C#N)c2cccc(Oc3ccccc3)c2)[C@@H]1C=C(Br)Br` [deltamethrin] the “suppression of spider populations relative to the untreated control (cross trial average)” value (spiders) was 83.4%, the “% of the flies killed after 24 h” value ([2]; 0.02% deltamethrin in acetone on glazed tiles, with or without 1% Compound A + 0.5% Compound B) was 7% and the “Likelihood” value [3] was “Fast (classified as “FAST” when it has a Log P value of about >4.0)”.

In the case of `CNC(=O)Oc1cccc2c1OC(C)(C)O2` [bendiocarb], the “% KD and Mortality 15′” value [1, 6] is reported as 0%, the “% KD and Mortality 30′” value [1, 6] is reported as 40% and the “% KD and Mortality 1 h” value [1, 6] is reported as 60%. For the same molecule, the “% KD and Mortality 2 h” value [1, 6] was 60%, the “% KD and Mortality 3 h” value [1, 6] was 80% and the “% KD and Mortality 4 h” value [1, 6] was 80%. The “% KD and Mortality 6 h” value [1, 6] was 80%, the “% KD and Mortality 24 h” value [1, 6] was 80% and the “% KD and Mortality 15′” value [2, 6] was 0%. The “% KD and Mortality 30′” value [2, 6] was 0%, the “% KD and Mortality 1 h” value [2, 6] was 0% and the “% KD and Mortality 2 h” value [2, 6] was 0%. For the same molecule, the “% KD and Mortality 3 h” value [2, 6] was 0%, the “% KD and Mortality 4 h” value [2, 6] was 0% and the “% KD and Mortality 6 h” value [2, 6] was 0%. The “% KD and Mortality 24 h” value [2, 6] was 5%, the “Likelihood” value [3] was “Slow (classified as “SLOW” when the compound has a Log P value of about <2.0)” and the “% KD and Mortality 15′” value [4, 6] was 0%. The “% KD and Mortality 30′” value [4, 6] was 0%, the “% KD and Mortality 1 h” value [4, 6] was 80% and the “% KD and Mortality 2 h” value [4, 6] was 100%. For the same molecule, the “% KD and Mortality 3 h” value [4, 6] was 100%, the “% KD and Mortality 4 h” value [4, 6] was 100% and the “% KD and Mortality 6 h” value [4, 6] was 100%. For the same molecule, the “% KD and Mortality 24 h” value [4, 6] was 100%.

With `O=[N+]([O-])NC1=NCCN1Cc1ccc(Cl)nc1` [imidacloprid] the “% KD and Mortality 15′” value [1, 7] was 0%, the “% KD and Mortality 30′” value [1, 7] was 0% and the “% KD and Mortality 1 h” value [1, 7] was 20%. For the same molecule, the “% KD and Mortality 2 h” value [1, 7] was 80%, the “% KD and Mortality 3 h” value [1, 7] was 100% and the “% KD and Mortality 4 h” value [1, 7] was 100%. For the same molecule, the “% KD and Mortality 6 h” value [1, 7] was 100%, the “% KD and Mortality 24 h” value [1, 7] was 100% and the “suppression of spider populations relative to the untreated control (cross trial average)” value (spiders) was “around 24.5%”. For the same molecule, the “% KD and Mortality 15′” value [2, 7] was 5%, the “% KD and Mortality 30′” value [2, 7] was 5% and the “% KD and Mortality 1 h” value [2, 7] was 5%. For the same molecule, the “% KD and Mortality 2 h” value [2, 7] was 5%, the “% KD and Mortality 3 h” value [2, 7] was 5% and the “% KD and Mortality 4 h” value [2, 7] was 5%. The “% KD and Mortality 6 h” value [2, 7] was 5%, the “% KD and Mortality 24 h” value [2, 7] was 20% and the “Likelihood” value [3] was “Slow (classified as “SLOW” when the compound has a Log P value of about <2.0)”. For the same molecule, the “% KD and Mortality 15′” value [4, 7] was 0%, the “% KD and Mortality 30′” value [4, 7] was 0% and the “% KD and Mortality 1 h” value [4, 7] was 0%. For the same molecule, the “% KD and Mortality 2 h” value [4, 7] was 10%, the “% KD and Mortality 3 h” value [4, 7] was 20% and the “% KD and Mortality 4 h” value [4, 7] was 20%. The “% KD and Mortality 6 h” value [4, 7] was 20% and the “% KD and Mortality 24 h” value [4, 7] was 100%.
